We go through 26 compounds from patent US4255519A, “Glycerol oxidase and process for the production thereof” (priority 1978, dated 1981).

The test system of one assay is glycerol oxidase II. Description: Inhibitors of enzyme: activity with 1 mM inhibitor, oxygen consumption rate by Warburg's manometer. It is filed as biochemical, Penicillium sp. KY 868. The settings on record: activity with no inhibitor defined as 100, from oxygen consumption rate. As to the method: Enzymes activities obtained by adding 1 mM of various inhibitors are shown in Table 1, the activity of the enzyme with no addition of the inhibitor being defined as 100. The activities are calculated from consumption rate of oxygen used in reaction measured by Warburg's manometer.
On to `[Cl][Hg][Cl]` [HgCl2], for which the “Relative rate (%)” value was determined as 79.0%.

On to `CC(=O)[O-].CC(=O)[O-].[Pb+2]` [Pb(CH3 COO)2], for which the “Relative rate (%)” value amounted to 26.3%.

Take `O=C(O)c1cc[c]([Hg][Cl])cc1` [p-Chloromercuri benzoate]: the “Relative rate (%)” value is recorded as 81.4%.

As for `O=C(O)CN(CCN(CC(=O)O)CC(=O)O)CC(=O)O` [EDTA], the “Relative rate (%)” value is 82.8%.

Regarding `CCN(CC)C(=S)S` [Diethyl dithiocarbamate], the “Relative rate (%)” value is recorded as 0%.

`c1cnc2c(c1)ccc1cccnc12` [o-Phenanthroline]: the “Relative rate (%)” value turned out to be 65.5%.

For `[Cl-].[Cl-].[Zn+2]` [ZnCl2], the “Relative rate (%)” value amounted to 84.3%.

Take `NO` [NH2 OH]: the “Relative rate (%)” value is listed as 0%.

Take `c1ccc(-c2ccccn2)nc1` [α,α'-Dipyridyl]: the “Relative rate (%)” value was determined as 75.7%.

As for `O=S(=O)([O-])[O-].[Fe+2]` [FeSO4], the “Relative rate (%)” value is 0%.

In the case of `Cc1ccc2ccc3ccc(C)nc3c2n1` [Neocuproine], the “Relative rate (%)” value is listed as 80.3%.

Turning to `O=[N+]([O-])[O-].[Ag+]` [AgNO3], the “Relative rate (%)” value is recorded as 0%.

In a further assay the test system is glycerol oxidase II. Put plainly: Substrate specificity, relative activity by 4-AA method. It is filed as biochemical, Penicillium sp. KY 868.
Conditions: not given
The method, then:
The relative activity is measured using other substrates in equimolar amounts to that of glycerol in the procedure for measuring the activity according to 4-AA method.
The relative activities on other substrates are given in Table 3, the activity on glycerol being defined as 100.
The enzyme activity is expressed by "unit." A "unit" of the enzyme activity is defined as that amount of enzyme which will decompose 1 μ mole of glycerol at 37° C. in 1 minute in the presence of oxygen. The determination of the enzyme activity is carried out as follows: glycerol is reacted with glycerol oxidase II with stirring to form hydrogen peroxide, and 4-aminoantipyrine and phenol are reacted with the resulting hydrogen peroxide in the presence of peroxidase to derive quinoneimine pigment. The optical density in the visible portion of the resulting quinoneimine pigment is measured to determine the amount of generated hydrogen peroxide, whereby the enzyme activity is determined (which will be hereinafter referred to as "4-AA method").
The reagents (1)-(6) are mixed in a test tube, and then shaken at 37° C. for 5 minutes. Then, enzyme solution is added thereto, and thus obtained mixture is made up to 3 ml with TES buffer solution. Reaction is carried out at 37° C. for 10 minutes with shaking. On the other hand, similar procedure is repeated using water in place of the test solution as a reference. The optical density of the reaction solution at 500 nm is measured, and a difference from the control is determined as ΔOD (optical density).
With `OCC(O)CO` [Glycerol], the “Substrate specificity (in words)” value was “reacts specifically”.

For the compound `O=C(CO)CO` [Dihydroxyacetone], the “Substrate specificity (in words)” value is “reacts specifically”.

Staying with this assay, now noted: substrate equimolar to glycerol; activity on glycerol defined as 100; 4-AA method.
Turning to `OCCCCO` [1,4-Butanediol], the Relative activity was determined as 11.

Take `CC(C)O` [iso-Propyl alcohol]: the Relative activity came out at 23.

`CC(O)CCO` (stereo not shown) [1,3-Butanediol] came in with a Relative activity of 11.

On to `OCCCO` [1,3-Propanediol], for which the Relative activity was 23.

The compound `CC(O)C(C)O` (stereo not shown) [2,3-Butanediol] gave a Relative activity of 16.

`CC(O)CO` (stereo not shown) [1,2-Propanediol]: the Relative activity was determined as 11.

In the case of `CCCCO` [n-Butyl alcohol], the Relative activity came out at 7.

`CC(C)CO` [iso-Butyl alcohol] displayed a Relative activity of 14.

The compound `CCC(C)O` (stereo not shown) [sec-Butyl alcohol] returned a Relative activity of 9.

The compound `CCO` [Ethanol] yielded a Relative activity of 11.

The compound `OCC(O)CO` [Glycerol] registered a Relative activity of 100.

`O=C(CO)CO` [Dihydroxyacetone] returned a Relative activity of 293.

In turn, `CCCO` [n-Propyl alcohol] yielded a Relative activity of 11.

With `O=P(O)(O)OCC(O)CO` (stereo not shown) [Glycerol-3-phosphoric acid], the Relative activity came out at 12.

In a further assay the test system is glycerol oxidase II. Description: Substrate affinity: Michaelis constant against glycerol. The settings on record: glycerol oxidase II of the genus Penicillium. Format: biochemical, Penicillium sp. KY 868. The source says: *Determination of Michaelis constant is described in the following reference. H. Lineweaver and D. Burk, J. Amer. Chem. Soc., 56, 658 (1934).
For the compound `OCC(O)CO` [Glycerol], the Michaelis constant (Km) worked out at 8 mM.

Another assay relates to glycerol oxidase I.
Assay: not given
The settings on record: glycerol oxidase I of Aspergillus japonicus (U.S. application Ser. No. 897,695); cited from earlier work.
In the case of `OCC(O)CO` [Glycerol], the Michaelis constant (Km) is 18.5 mM.

A further assay has as its system glycerol oxidase I.
Assay: not given
The conditions noted are these: glycerol oxidase I of Neurospora crassa (U.S. application Ser. No. 897,695); cited from earlier work.
On to `OCC(O)CO` [Glycerol], for which the Km was 19 mM.

The Km is the substrate concentration at which the rate is half of its maximum.
